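Five concentrations, 48 hours, 96-well plates. The concentration for 50% growth inhibition is given as GI50.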 The source made the active and inactive calls. Rule as the data show it: active = GI50 up to about 1.1 µM and inactive = higher.
Columns and labels:
Assay in all cases: NCI tumour cell line growth inhibition, 48 h
786-0 = test system: 786-0
A498 = test system: A498
A549 = test system: A549
ACHN = test system: ACHN
CAKI-1 = test system: CAKI-1
CCRF-CEM = test system: CCRF-CEM
COLO 205 = test system: COLO 205
DLD-1 = test system: DLD-1
DMS-114 = test system: DMS-114
DMS-273 = test system: DMS-273
HCC 2998 = test system: HCC 2998
HCT-116 = test system: HCT-116
HCT-15 = test system: HCT-15
HL-60 = test system: HL-60
HOP-62 = test system: HOP-62
HOP-92 = test system: HOP-92
HT-29 = test system: HT-29
IGROV-1 = test system: IGROV-1
K562 = test system: K562
KM-20L2 = test system: KM-20L2
KM12 = test system: KM12
LOX IMVI = test system: LOX IMVI
LXFL 529 = test system: LXFL 529
M14 = test system: M14
M19-MEL = test system: M19-MEL
MOLT-4 = test system: MOLT-4
Malme-3M = test system: Malme-3M
NCI-H226 = test system: NCI-H226
NCI-H23 = test system: NCI-H23
NCI-H460 = test system: NCI-H460
NCI-H522 = test system: NCI-H522
OVCAR-3 = test system: OVCAR-3
OVCAR-4 = test system: OVCAR-4
OVCAR-5 = test system: OVCAR-5
OVCAR-8 = test system: OVCAR-8
RPMI-8226 = test system: RPMI-8226
RXF 393 = test system: RXF 393
RXF 631 = test system: RXF 631
SF-268 = test system: SF-268
SF-295 = test system: SF-295
SF-539 = test system: SF-539
SK-MEL-28 = test system: SK-MEL-28
SK-MEL-2 = test system: SK-MEL-2
SK-MEL-5 = test system: SK-MEL-5
SK-OV-3 = test system: SK-OV-3
SN12C = test system: SN12C
SNB-19 = test system: SNB-19
SNB-75 = test system: SNB-75
SNB-78 = test system: SNB-78
SW-620 = test system: SW-620
TK-10 = test system: TK-10
U-251 = test system: U-251
UACC-257 = test system: UACC-257
UACC-62 = test system: UACC-62
UO-31 = test system: UO-31
XF498 = test system: XF498
EKVX = test system: EKVX
SR = test system: SR

SMILES: Cc1cccc(C(C)(C)C)c1NC(=O)CCc1nnc(S)[nH]1
- GI50 (786-0): > 100 µM (inactive)
- GI50 (A498): > 100 µM (inactive)
- GI50 (A549): > 100 µM (inactive)
- GI50 (ACHN): > 100 µM (inactive)
- GI50 (CAKI-1): > 100 µM (inactive)
- GI50 (CCRF-CEM): > 100 µM (inactive)
- GI50 (COLO 205): > 100 µM (inactive)
- GI50 (DLD-1): > 100 µM (inactive)
- GI50 (DMS-114): > 100 µM (inactive)
- GI50 (DMS-273): > 100 µM (inactive)
- GI50 (HCC 2998): > 100 µM (inactive)
- GI50 (HCT-116): > 100 µM (inactive)
- GI50 (HCT-15): > 100 µM
- GI50 (HL-60): > 100 µM (inactive)
- GI50 (HOP-62): > 100 µM (inactive)
- GI50 (HOP-92): > 100 µM (inactive)
- GI50 (HT-29): > 100 µM (inactive)
- GI50 (IGROV-1): > 100 µM (inactive)
- GI50 (K562): > 100 µM (inactive)
- GI50 (KM-20L2): > 100 µM (inactive)
- GI50 (KM12): > 100 µM (inactive)
- GI50 (LOX IMVI): > 100 µM (inactive)
- GI50 (LXFL 529): > 100 µM (inactive)
- GI50 (M14): > 100 µM (inactive)
- GI50 (M19-MEL): > 100 µM (inactive)
- GI50 (MOLT-4): > 100 µM (inactive)
- GI50 (Malme-3M): > 100 µM (inactive)
- GI50 (NCI-H226): > 100 µM (inactive)
- GI50 (NCI-H23): > 100 µM (inactive)
- GI50 (NCI-H460): > 100 µM (inactive)
- GI50 (NCI-H522): > 100 µM (inactive)
- GI50 (OVCAR-3): > 100 µM (inactive)
- GI50 (OVCAR-4): > 100 µM (inactive)
- GI50 (OVCAR-5): > 100 µM (inactive)
- GI50 (OVCAR-8): > 100 µM (inactive)
- GI50 (RPMI-8226): > 100 µM (inactive)
- GI50 (RXF 393): > 100 µM (inactive)
- GI50 (RXF 631): > 100 µM (inactive)
- GI50 (SF-268): > 100 µM (inactive)
- GI50 (SF-295): > 100 µM (inactive)
- GI50 (SF-539): > 100 µM (inactive)
- GI50 (SK-MEL-28): > 100 µM (inactive)
- GI50 (SK-MEL-2): > 100 µM (inactive)
- GI50 (SK-MEL-5): > 100 µM (inactive)
- GI50 (SK-OV-3): > 100 µM (inactive)
- GI50 (SN12C): > 100 µM (inactive)
- GI50 (SNB-19): > 100 µM (inactive)
- GI50 (SNB-75): > 100 µM (inactive)
- GI50 (SNB-78): > 100 µM (inactive)
- GI50 (SW-620): > 100 µM (inactive)
- GI50 (TK-10): > 100 µM (inactive)
- GI50 (U-251): > 100 µM (inactive)
- GI50 (UACC-257): > 100 µM (inactive)
- GI50 (UACC-62): > 100 µM (inactive)
- GI50 (UO-31): > 100 µM (inactive)
- GI50 (XF498): > 100 µM (inactive)

SMILES: COc1c2c(c3c(c1C1OC(C)[C@@H](C)O1)CC(C)(C)O3)C(=O)c1ccccc1C2=O (some centres not stated)
- GI50 (786-0): 72.9 µM (inactive)
- GI50 (A549): 73.3 µM (inactive)
- GI50 (ACHN): 40.5 µM (inactive)
- GI50 (CAKI-1): 40.2 µM (inactive)
- GI50 (CCRF-CEM): 20.8 µM (inactive)
- GI50 (COLO 205): 35.1 µM (inactive)
- GI50 (DLD-1): 36.1 µM (inactive)
- GI50 (DMS-114): 37.4 µM (inactive)
- GI50 (DMS-273): 24.2 µM (inactive)
- GI50 (EKVX): > 100 µM (inactive)
- GI50 (HCC 2998): 76.2 µM (inactive)
- GI50 (HCT-116): 42.7 µM (inactive)
- GI50 (HCT-15): 43.1 µM
- GI50 (HL-60): 13.5 µM (inactive)
- GI50 (HOP-62): > 100 µM (inactive)
- GI50 (HOP-92): 16.9 µM (inactive)
- GI50 (HT-29): 31.6 µM (inactive)
- GI50 (IGROV-1): > 100 µM (inactive)
- GI50 (K562): 25.4 µM (inactive)
- GI50 (KM-20L2): 29.2 µM (inactive)
- GI50 (KM12): 45.7 µM (inactive)
- GI50 (LOX IMVI): 15 µM (inactive)
- GI50 (LXFL 529): 23.1 µM (inactive)
- GI50 (M14): 65 µM (inactive)
- GI50 (M19-MEL): 36.7 µM (inactive)
- GI50 (Malme-3M): 64.6 µM (inactive)
- GI50 (NCI-H226): > 100 µM (inactive)
- GI50 (NCI-H23): 48.2 µM (inactive)
- GI50 (NCI-H460): 37.6 µM (inactive)
- GI50 (NCI-H522): > 10 µM (inactive)
- GI50 (OVCAR-3): 38.2 µM (inactive)
- GI50 (OVCAR-4): 42 µM (inactive)
- GI50 (OVCAR-5): > 100 µM (inactive)
- GI50 (OVCAR-8): 34.3 µM (inactive)
- GI50 (RPMI-8226): 20.6 µM (inactive)
- GI50 (RXF 393): 28 µM (inactive)
- GI50 (RXF 631): 9.91 µM (inactive)
- GI50 (SF-268): 54.2 µM (inactive)
- GI50 (SF-295): 65.2 µM (inactive)
- GI50 (SF-539): > 100 µM (inactive)
- GI50 (SK-MEL-28): 55.3 µM (inactive)
- GI50 (SK-MEL-2): > 100 µM (inactive)
- GI50 (SK-MEL-5): 56.8 µM (inactive)
- GI50 (SK-OV-3): 13.9 µM (inactive)
- GI50 (SN12C): 35.6 µM (inactive)
- GI50 (SNB-19): > 100 µM (inactive)
- GI50 (SNB-75): 46.5 µM (inactive)
- GI50 (SNB-78): > 100 µM (inactive)
- GI50 (SR): 22.5 µM (inactive)
- GI50 (SW-620): 23.9 µM (inactive)
- GI50 (TK-10): > 100 µM (inactive)
- GI50 (U-251): 36.6 µM (inactive)
- GI50 (UACC-257): > 100 µM (inactive)
- GI50 (UACC-62): 34.9 µM (inactive)
- GI50 (UO-31): 36.7 µM (inactive)
- GI50 (XF498): 41 µM (inactive)

Reference: ChEMBL document CHEMBL1201862, “PubChem BioAssay data set” (2004)
